Measured values reported in patent publication US20100137303A1, “NEW COMPOUND 255” (AstraZeneca AB, priority 2008, published 2010).
Converted amounts (≈) assume the structure as drawn.

Key:
Msm. GyrB = molecular target: T1, Msm. GyrB (Mycolicibacterium smegmatis, UniProt A0QNE0); assay: Msmegmatis GyrB enzyme assay (ATPase, malachite green phosphate detection); assay type: biochemical; conditions: read-out: Msm_GyrB IC50
T1 construct: 15 nM Msm; GyrB, 650 μM ATP, and compound in dimethyl sulfoxide
Description: Compounds may be tested for inhibition of GyrB ATPase activity using an ammonium molybdate/malachite green-based phosphate detection assay (Lanzetta, P. A., L. J. Alvarez, P. S. Reinach, and O. A. Candia, 1979, 100: 95-97; Innova Biosciences malachite green detection kit). Assays can be performed in multi-well plates in 50 μl reactions containing: 50 mM HEPES buffer pH 7.7, 250 mM potassium glutamate, 200 mM potassium chloride, 2 mM magnesium chloride, 2% glycerol, 1 mM 1,4-Dithio-DL-threitol, 0.005% Brij-35, 15 nM Msm. GyrB, 650 μM ATP, and compound in dimethyl sulfoxide. Reactions can be quenched with 12.5 μl of ammonium molybdate/malachite green detection reagent (Pi color lock gold & accelerator mix; Innova Biosciences), followed by the addition of 5 μl of stabilizer (Innova Biosciences) after 5 min of incubation.

M. tuberculosis = assay: Mycobacteria susceptibility testing, Microplate Alamar Blue Assay, Mtu MIC; assay type: cell-based, Mycobacterium tuberculosis (Mtu); conditions: Mycobacterium tuberculosis
Spn548 = assay: Bacterial susceptibility testing in liquid media, Spn548 MIC; conditions: Streptococcus pneumoniae, 24 h, read-out: Spn548 Mean MIC
Description: (§1) Compounds may be tested for antimicrobial activity by susceptibility testing in liquid media. Compounds may be dissolved in dimethylsulfoxide and tested in 10 doubling dilutions in the susceptibility assays. The organisms used in the assay may be grown overnight on suitable agar media and then suspended in a liquid medium appropriate for the growth of the organism. The suspension can be a 0.5 McFarland and a further 1 in 10 dilution can be made into the same liquid medium to prepare the final organism suspension in 100 μL. Plates can be incubated under appropriate conditions at 37° C. for 24 hrs prior to reading.

Eco-tolC = assay: Bacterial susceptibility testing in liquid media, Eco-tolC MIC; conditions: Escherichia coli, read-out: Eco-tolC MIC
Description: as §1

T1 sequence (A0QNE0 whole entry): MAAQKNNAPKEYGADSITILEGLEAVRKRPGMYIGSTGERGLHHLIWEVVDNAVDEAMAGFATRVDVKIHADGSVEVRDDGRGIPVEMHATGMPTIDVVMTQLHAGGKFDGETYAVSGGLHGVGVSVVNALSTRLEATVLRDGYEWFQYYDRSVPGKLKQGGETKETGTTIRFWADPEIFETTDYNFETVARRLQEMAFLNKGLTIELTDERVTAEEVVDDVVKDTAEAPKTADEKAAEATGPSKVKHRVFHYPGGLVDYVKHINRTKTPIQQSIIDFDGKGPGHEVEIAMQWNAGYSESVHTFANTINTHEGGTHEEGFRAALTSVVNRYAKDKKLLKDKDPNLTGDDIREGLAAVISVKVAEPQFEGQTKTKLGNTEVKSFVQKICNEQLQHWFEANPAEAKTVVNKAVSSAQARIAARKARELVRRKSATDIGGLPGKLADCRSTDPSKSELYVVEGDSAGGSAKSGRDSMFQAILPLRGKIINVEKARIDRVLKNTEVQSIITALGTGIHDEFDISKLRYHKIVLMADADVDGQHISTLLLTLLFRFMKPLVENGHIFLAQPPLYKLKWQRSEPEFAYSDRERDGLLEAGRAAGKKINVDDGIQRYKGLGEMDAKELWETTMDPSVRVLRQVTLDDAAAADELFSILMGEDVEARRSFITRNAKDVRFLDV

Row | Compound | IC50 (Msm. GyrB) [nM] | MIC (M. tuberculosis) [µg/mL] | MIC (Spn548) [µg/mL] | MIC (Eco-tolC) [µg/mL]
1 | CCNC(=O)Nc1nc2cc(-c3cncnc3)c(OC[C@H]3CCCO3)nc2s1 [Example 63, 1-ethyl-3-{6-pyrimidin-5-yl-5-[(2R)-tetrahydrofuran-2-ylmethoxy][1,3]thiazolo[5,4-b]pyridin-2-yl}urea] | 2.6 | 0.25 (≈ 0.624 µM) | 0.125 (≈ 0.312 µM) | 1 (≈ 2.5 µM)
2 | C=CCNC(=O)Nc1nc2cc(-c3cncnc3)c(OCc3ccccn3)nc2s1 [Example 34, 1-prop-2-en-1-yl-3-[5-(pyridin-2-ylmethoxy)-6-pyrimidin-5-yl[1,3]thiazolo[5,4-b]pyridin-2-yl]urea] | 28.1 | 1.41 (≈ 3.37 µM) | 0.0625 (≈ 0.149 µM) | 1 (≈ 2.38 µM)
3 | CCNC(=O)Nc1nc2cc(-c3cccnc3OC)c(OCC3CCOCC3)nc2s1 [Example 61, 1-ethyl-3-[6-(2-methoxypyridin-3-yl)-5-(tetrahydro-2H-pyran-4-ylmethoxy)[1,3]thiazolo[5,4-b]pyridin-2-yl]urea] | 4.74 | > 4 | 0.25 (≈ 0.564 µM) | 16 (≈ 36.1 µM)
4 | C=CCNC(=O)Nc1nc2cc(-c3cnc(OC)nc3)c(OCCN(C)C)nc2s1 [Example 17, 1-allyl-3-(5-(2-(dimethylamino)ethoxy)-6-(2-methoxypyrimidin-5-yl)thiazolo[5,4-b]pyridin-2-yl)urea] | 216 | > 64 | 16 (≈ 37.3 µM) | > 64
5 | CCNC(=O)Nc1nc2cc(-c3cncnc3)c(OCCOCC)nc2s1 [Example 46, 1-[5-(2-ethoxyethoxy)-6-pyrimidin-5-yl[1,3]thiazolo[5,4-b]pyridin-2-yl]-3-ethylurea] | 20 | 0.125 (≈ 0.322 µM) | 0.0625 (≈ 0.161 µM) | 0.25 (≈ 0.644 µM)
6 | C=CCOCCOc1nc2sc(NC(=O)NCC)nc2cc1-c1cncnc1 [Example 47, 1-ethyl-3-{5-[2-(prop-2-en-1-yloxy)ethoxy]-6-pyrimidin-5-yl[1,3]thiazolo[5,4-b]pyridin-2-yl}urea] | 17.1 | 0.125 (≈ 0.312 µM) | 0.0625 (≈ 0.156 µM) | 0.5 (≈ 1.25 µM)
7 | C=CCNC(=O)Nc1nc2cc(-c3cncc(C(=O)N(C)C)c3)c(C)nc2s1 [Example 13, 5-[2-(3-Allyl-ureido)-5-methyl-thiazolo[5,4-b]pyridin-6-yl]-N,N-dimethyl-nicotinamide] | 644 | > 32 | 4 (≈ 10.1 µM) | > 32
8 | C=CCNC(=O)Nc1nc2cc(-c3cncc(C(=O)NCC4CCOCC4)c3)cnc2s1 [Example 21, 5-{2-[(prop-2-en-1-ylcarbamoyl)amino][1,3]thiazolo[5,4-b]pyridin-6-yl}-N-(tetrahydro-2H-pyran-4-ylmethyl)pyridine-3-carboxamide] | 236 | > 64 | > 32 | > 32
9 | C=CCNC(=O)Nc1nc2cc(Br)cnc2o1 [Example 14, 1-allyl-3-(6-bromooxazolo[5,4-b]pyridin-2-yl)urea] | 24700 | > 16 | 16 (≈ 53.9 µM) | 32 (≈ 108 µM)
10 | CCNC(=O)Nc1nc2cc(-c3cncc(C(=O)OCC)c3)cnc2s1 [Example 9, 5-[2-(3-Ethyl-ureido)-thiazolo [5,4-b]pyridin-6-yl]-nicotinic acid ethyl ester] | 51.1 | > 32 | 0.58 (≈ 1.56 µM) | > 37.1
11 | CCNC(=O)Nc1nc2cc(N3CCC(O)C3)c(OCC3CCOC3)nc2s1 (stereo not drawn) [Example 58, 1-ethyl-3-(6-(3-hydroxypyrrolidin-1-yl)-5-((tetrahydrofuran-3-yl)methoxy)thiazolo[5,4-b]pyridin-2-yl)urea] | 2110 | > 8 | 4 (≈ 9.82 µM) | > 32
12 | CCNC(=O)Nc1nc2cc(-c3cncnc3)c(OCCOC(C)C)nc2s1 [Example 35, 1-ethyl-3-{5-[2-(1-methylethoxy)ethoxy]-6-pyrimidin-5-yl[1,3]thiazolo[5,4-b]pyridin-2-yl}urea] | 28 | 0.354 (≈ 0.879 µM) | 0.0625 (≈ 0.155 µM) | 0.25 (≈ 0.621 µM)
13 | C=CCNC(=O)Nc1nc2cc(-c3cccnc3)cnc2o1 [Example 15, 1-allyl-3-(6-(pyridin-3-yl)oxazolo[5,4-b]pyridin-2-yl)urea] | 2000 | > 16 | 16 (≈ 54.2 µM) | > 64
14 | CCNC(=O)Nc1nc2cc(-c3cncnc3)c(OCc3cscn3)nc2s1 [Example 50, 1-ethyl-3-[6-pyrimidin-5-yl-5-(1,3-thiazol-4-ylmethoxy)[1,3]thiazolo[5,4-b]pyridin-2-yl]urea] | < 2.54 | 0.25 (≈ 0.605 µM) | 0.0625 (≈ 0.151 µM) | 0.25 (≈ 0.605 µM)
15 | CCNC(=O)Nc1nc2cc(-c3cnc(OC)nc3)cnc2s1 [Example 4, 1-ethyl-3-[6-(2-methoxypyrimidin-5-yl)thiazolo [5,4-b]pyridin-2-yl] urea] | 140 | > 8 | 0.5 (≈ 1.51 µM) | > 64
16 | CCNC(=O)Nc1nc2cc(-c3cncnc3)c(OCCC(C)C)nc2s1 [Example 37, 1-ethyl-3-[5-(3-methylbutoxy)-6-pyrimidin-5-yl[1,3]thiazolo[5,4-b]pyridin-2-yl]urea] | 11.8 | < 0.25 | 0.0625 (≈ 0.162 µM) | 0.25 (≈ 0.647 µM)
17 | C=CCNC(=O)Nc1nc2cc(-c3cncc(C(=O)NC)c3)cnc2s1 [Example 22, N-methyl-5-{2-[(prop-2-en-1-ylcarbamoyl)amino][1,3]thiazolo[5,4-b]pyridin-6-yl}pyridine-3-carboxamide] | 323 | > 64 | > 32 | > 32
18 | CCNC(=O)Nc1nc2cc(-c3cccc(/C=C/C(=O)O)c3)c(OCC3CCOC3)nc2s1 (stereo not drawn) [Example 55, (2E)-3-(3-{2-[(ethylcarbamoyl)amino]-5-(tetrahydrofuran-3-ylmethoxy)[1,3]thiazolo[5,4-b]pyridin-6-yl}phenyl)prop-2-enoic acid] | 35.2 | > 8 | 0.0625 (≈ 0.133 µM) | 2 (≈ 4.27 µM)
19 | CCNC(=O)Nc1nc2cc(-c3cncnc3)c(OC3CCOC3)nc2s1 (stereo not drawn) [Example 64, 1-ethyl-3-[6-pyrimidin-5-yl-5-(tetrahydrofuran-3-yloxy)[1,3]thiazolo[5,4-b]pyridin-2-yl]urea] | < 2.54 | 0.125 (≈ 0.323 µM) | 0.125 (≈ 0.323 µM) | 0.5 (≈ 1.29 µM)
20 | CCNC(=O)Nc1nc2cc(-c3cncnc3)c(NCC3CCCO3)nc2s1 (stereo not drawn) [Example 52, 1-ethyl-3-{6-pyrimidin-5-yl-5-[(tetrahydrofuran-2-ylmethyl)amino][1,3]thiazolo[5,4-b]pyridin-2-yl}urea] | 7.88 | 1 (≈ 2.5 µM) | 0.125 (≈ 0.313 µM) | 4 (≈ 10 µM)
21 | C=CCNC(=O)Nc1nc2cc(-c3cncc(C(=O)O)c3)cnc2s1 [Example 10, 5-[2-(3-Allyl-ureido)-thiazolo[5,4-b]pyridin-6-yl]-nicotinic acid] | 185 | > 16 | 32 (≈ 90 µM) | > 64
22 | CCNC(=O)Nc1nc2cc(-c3cncnc3)c(OCC(C)C)nc2s1 [Example 43, 1-ethyl-3-[5-(2-methylpropoxy)-6-pyrimidin-5-yl[1,3]thiazolo[5,4-b]pyridin-2-yl]urea] | 4.39 | 0.125 (≈ 0.336 µM) | 0.0727 (≈ 0.195 µM) | 0.582 (≈ 1.56 µM)
23 | CCNC(=O)Nc1nc2cc(-c3cncc(F)c3)c(OCC3CCOCC3)nc2s1 [Example 60, 1-ethyl-3-[6-(5-fluoropyridin-3-yl)-5-(tetrahydro-2H-pyran-4-ylmethoxy)[1,3]thiazolo[5,4-b]pyridin-2-yl]urea] | < 2.54 | 0.354 (≈ 0.819 µM) | 0.125 (≈ 0.29 µM) | 1 (≈ 2.32 µM)
24 | C=CCNC(=O)Nc1nc2cc(-c3cnc(OC)nc3)c(C)nc2s1 [Example 7, 1-Allyl-3-[6-(2-methoxy-pyrimidin-5-yl)-5-methyl-thiazolo [5,4-b]pyridin-2-yl]-urea] | 239 | 32 (≈ 89.8 µM) | 0.0625 (≈ 0.175 µM) | > 32
25 | C=CCNC(=O)Nc1nc2cc(-c3cncc(C(=O)O)c3)c(C)nc2s1 [Example 12, 5-[2-(3-Allyl-ureido)-5-methylthiazolo [5,4b]pyridin-6-yl]nicotinic acid] | 166 | > 32 | 32 (≈ 86.6 µM) | > 32
26 | CCNC(=O)Nc1nc2cc(-c3cnc(OC)nc3)cnc2o1 [Example 18, 1-ethyl-3-[6-(2-methoxypyrimidin-5-yl)[1,3]oxazolo[5,4-b]pyridin-2-yl]urea] | 10900 | > 32 | > 32 | > 32
27 | C=CCNC(=O)Nc1nc2cc(-c3nc(C(=O)O)cs3)cnc2s1 [Example 31, 2-{2-[(prop-2-en-1-ylcarbamoyl)amino][1,3]thiazolo[5,4-b]pyridin-6-yl}-1,3-thiazole-4-carboxylic acid] | 8940 | > 32 | > 32 | > 32
